Tests used:
[1] = target: T1, Human MMP-2 catalytic domain (Homo sapiens, UniProt P08253, DEL222-396); assay: Fluorometric MMP-2 inhibition assay (MTS), catalytic domain; assay type: biochemical
T1 construct: Human MMP-2 catalytic domain (residues 110-221, 397-455); made in house
Description: In vitro MMP-2 activity was then measured, using a fluorometric assay in a 384 well format. Human MMP-2 catalytic domain (residues 110-221, 397-455) (Feng et al., [2000]) was expressed in E. coli in form of inclusion bodies. The protein was refolded and then purified by means of Ni-NTA affinity and anion exchange chromatography. Inhibition assays were carried out in 50 mM Tris, 5 mM CaCl2, 300 mM NaCl, 20 μM ZnSO4, pH = 7.5 buffer. For inhibition studies the catalytic domain of the enzyme was pre-incubated with varying amount of inhibitor for 30 min. […] After 1 h incubation at 37°C the fluorescence was detected using a Wallac 1420 Victor2 microplate reader at 320 nm/405 nm Ex/Em wavelength. As an alternative substrate we also used 5-FAM-Pro-Leu-Gly-Leu-Dap(QXL™ 520)-Ala-Arg-NH2, where the fluorescence was detected at 485 nm/520 nm. For each inhibitor candidate, the percentage of inhibition was determined in duplicate experiments at six inhibitor concentrations, chosen to observe a 5–95% range of inhibition.
Since hydroxamic acids are reported as the primary zinc-binding motif, we intended to select such a library from the AMRI 200,000 member non-exclusive compound repository as a starting point of our drug discovery efforts. Since only a few compounds were available in the repository as hydroxamic acids and the conversion of acids to hydroxamic acids were not applicable to HT parallel synthesis, we decided first to select free acids from the AMRI's compound collection. […] The selected acids were screened in a fluorescent assay using a recombinant human MMP-2 catalytic fragment and a synthetic peptide substrate. […] The hydroxamic acid pairs of the previously measured acids were then tested.

isolated rat hearts = assay: Myocardial infarct size in isolated rat heart, global ischemia/reperfusion (Langendorff); conditions: 1 μM; 30 min global ischemia, 120 min reperfusion; vs vehicle
Description: Our experiment conforms to the National Institutes of Health Guide for the Care and Use of Laboratory Animals (NIH Pub. No. 85-23, Revised 1996) and also to the EU directive guideline for the care and use of laboratory animals published by the European Union (2010/63/EU) and was approved by the local ethics committee of the University of Szeged. Eight to ten week-old male Wistar rats weighing 300–350 g (Toxicoop Ltd., Budapest, Hungary) were anesthetized intraperitoneally with 60 mg/kg pentobarbital sodium (Euthasol, Produlab Pharma, Raamsdonksveer, The Netherlands). After administration of 500 U/kg heparin through the femoral vein, the heart was isolated and perfused according to Langendorff with oxygenated Krebs-Henseleit buffer at 37°C as previously described (Turan et al., [2006]). […] Heart rate and coronary flow were monitored throughout the perfusion protocol. […]
At the end of the 2-h reperfusion, the right ventricle was removed, hearts were frozen, cut into six 1-mm-thick slices, and incubated in 1% triphenyl-tetrazolium chloride (Sigma-Aldrich; St. Louis, MO) at 37°C to delineate infarcted tissue. Slices were then fixed and quantified by planimetry using Infarctsize™ 2.5 software (Pharmahungary, Szeged, Hungary) (Fekete et al., [2013]). Infarct size was expressed as a percentage of the left ventricle.

T1 sequence (P08253 with tags, fused parts or gaps DEL222-396 limits assumed): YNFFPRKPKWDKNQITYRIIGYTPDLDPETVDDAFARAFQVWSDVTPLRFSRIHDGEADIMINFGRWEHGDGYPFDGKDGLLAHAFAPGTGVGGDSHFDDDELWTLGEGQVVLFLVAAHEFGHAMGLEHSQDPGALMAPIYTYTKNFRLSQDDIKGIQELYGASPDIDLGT

selectivity over MMP-1 ([1]; MMP-2 vs MMP-1, Table 2 values): 1.5 fold
IC50 ([1]; Table 2): 6.6 µM
SMILES: O=C(O)c1c[nH]c(CN(Cc2ccc(F)cc2)Cc2ccc(OCc3ccccc3)cc2)n1 [MMPI-1154]
myocardial infarct size (isolated rat hearts): reduced myocardial infarct size significanly
